In ChEMBL document CHEMBL5046241, “The novel therapeutic strategy of vilazodone-donepezil chimeras as potent triple-target ligands for the potential treatment of Alzheimer's disease with comorbid depression” (Eur J Med Chem, 2022):
pEC50, pIC50, pKi: −log10 of the molar value.

Columns and labels:
[1] = target: 5-hydroxytryptamine receptor 1B (Homo sapiens, UniProt P28222)
Description: Agonist activity at 5-HT1B receptor (unknown origin)

[2] = target: Sodium-dependent serotonin transporter (Homo sapiens, UniProt P31645); format: cell-based, HEK293
Cholinesterase = Cholinesterase (Mus musculus, UniProt Q03311)
Description: Inhibition of BuChE in mouse serum using butyrylthiocholine iodide as substrate incubated for 20 mins by Ellman's method

[3] = target: T1, 5-hydroxytryptamine receptor 1A (Homo sapiens, UniProt P08908)
T1 sequence (P08908 whole entry): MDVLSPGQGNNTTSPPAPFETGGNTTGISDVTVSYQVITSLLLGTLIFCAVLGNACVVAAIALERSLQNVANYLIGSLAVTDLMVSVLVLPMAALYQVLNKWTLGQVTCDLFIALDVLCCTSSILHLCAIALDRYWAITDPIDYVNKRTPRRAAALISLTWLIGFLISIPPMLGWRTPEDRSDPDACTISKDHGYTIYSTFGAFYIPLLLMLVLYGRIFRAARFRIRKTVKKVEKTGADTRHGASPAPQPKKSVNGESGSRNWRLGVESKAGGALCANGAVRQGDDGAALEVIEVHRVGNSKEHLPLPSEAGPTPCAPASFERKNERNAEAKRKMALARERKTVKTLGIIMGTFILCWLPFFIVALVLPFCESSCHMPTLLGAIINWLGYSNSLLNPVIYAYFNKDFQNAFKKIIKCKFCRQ
Description: Agonist activity at human 5-HT1A receptor expressed in HEK293 cells incubated for 60 mins by Eu-cAMP tracer based LANCE ultra cAMP assay

in vitro [4] = conditions: PAMPA
Description: Permeability of compound by PAMPA-BBB assay

Acetylcholinesterase [5] = target: T2, Acetylcholinesterase (Mus musculus, UniProt P21836); test: biochemical
T2 sequence (P21836 whole entry): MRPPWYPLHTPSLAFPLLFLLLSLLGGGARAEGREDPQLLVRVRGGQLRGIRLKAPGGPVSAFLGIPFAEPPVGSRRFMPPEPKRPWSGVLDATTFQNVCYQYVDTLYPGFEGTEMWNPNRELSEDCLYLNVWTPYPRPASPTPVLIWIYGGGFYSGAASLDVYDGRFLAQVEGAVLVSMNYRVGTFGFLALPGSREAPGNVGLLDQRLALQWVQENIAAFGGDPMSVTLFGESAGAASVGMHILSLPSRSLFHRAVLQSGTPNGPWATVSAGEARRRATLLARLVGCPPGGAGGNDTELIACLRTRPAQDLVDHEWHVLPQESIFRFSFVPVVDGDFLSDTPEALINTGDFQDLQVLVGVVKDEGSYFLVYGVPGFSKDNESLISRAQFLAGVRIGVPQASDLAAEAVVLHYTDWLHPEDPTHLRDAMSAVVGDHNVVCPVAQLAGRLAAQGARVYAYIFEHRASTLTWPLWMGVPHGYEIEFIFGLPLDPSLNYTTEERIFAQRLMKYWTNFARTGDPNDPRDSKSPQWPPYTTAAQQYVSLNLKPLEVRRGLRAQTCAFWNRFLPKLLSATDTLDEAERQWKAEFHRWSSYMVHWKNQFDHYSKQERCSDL
Description: Inhibition of AChE in mouse cortical homogenate using acetylthiocholine iodide as substrate incubated for 20 mins by Ellman's method

Acetylcholinesterase [6] = target: T2, Acetylcholinesterase; test: Inhibition of mouse AChE assessed as inhibition constant using acetylthiocholine iodide as substrate measured every 2 mins by lineweaver-burk plot analysis
Acetylcholinesterase [7] = target: Acetylcholinesterase (Homo sapiens, UniProt P22303); test: Inhibition of […] using acetylthiocholine iodide as substrate incubated for 20 mins by Ellman's method; parameters: species or system Erythrocyte
[8] = target: Voltage-gated inwardly rectifying potassium channel KCNH2 (Homo sapiens, UniProt Q12809)
Description: Inhibition of hERG expressed in CHO cells at -80 mV holding potential by automated patch clamp method

[9] = target: Sodium-dependent dopamine transporter (Homo sapiens, UniProt Q01959)
Description: Inhibition of dopamine transporter (unknown origin)

in vitro [10] = conditions: Sprague-Dawley, rat, microsomes
in vitro [11] = conditions: Sprague-Dawley, rat, microsomes; remark: listed apart in the source
in vitro [12] = conditions: CD-1, mouse, microsomes
in vitro [13] = conditions: CD-1, mouse, microsomes; remark: listed apart in the source
[14] = target: Sodium-dependent noradrenaline transporter (Homo sapiens, UniProt P23975)
Sequence of Sodium-dependent noradrenaline transporter (P23975 whole entry): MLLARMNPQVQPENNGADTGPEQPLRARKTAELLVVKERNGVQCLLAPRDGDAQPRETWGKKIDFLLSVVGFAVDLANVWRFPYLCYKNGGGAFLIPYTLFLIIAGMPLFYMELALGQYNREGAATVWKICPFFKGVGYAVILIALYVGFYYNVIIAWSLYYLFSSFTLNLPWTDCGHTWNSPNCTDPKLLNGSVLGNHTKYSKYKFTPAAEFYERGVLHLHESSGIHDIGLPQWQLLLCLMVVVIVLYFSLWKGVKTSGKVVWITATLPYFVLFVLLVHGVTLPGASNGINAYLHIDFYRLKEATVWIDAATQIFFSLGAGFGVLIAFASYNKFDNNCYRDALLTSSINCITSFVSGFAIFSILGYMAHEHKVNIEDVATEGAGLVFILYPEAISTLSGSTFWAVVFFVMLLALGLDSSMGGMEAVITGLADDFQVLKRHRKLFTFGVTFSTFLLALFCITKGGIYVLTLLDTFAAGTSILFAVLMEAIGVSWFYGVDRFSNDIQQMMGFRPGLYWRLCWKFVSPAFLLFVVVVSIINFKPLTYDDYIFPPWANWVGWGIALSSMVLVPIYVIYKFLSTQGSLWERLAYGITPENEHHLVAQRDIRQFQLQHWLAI
Description: Inhibition of norepinephrine transporter (unknown origin)

Sequence of Cholinesterase (Q03311 whole entry): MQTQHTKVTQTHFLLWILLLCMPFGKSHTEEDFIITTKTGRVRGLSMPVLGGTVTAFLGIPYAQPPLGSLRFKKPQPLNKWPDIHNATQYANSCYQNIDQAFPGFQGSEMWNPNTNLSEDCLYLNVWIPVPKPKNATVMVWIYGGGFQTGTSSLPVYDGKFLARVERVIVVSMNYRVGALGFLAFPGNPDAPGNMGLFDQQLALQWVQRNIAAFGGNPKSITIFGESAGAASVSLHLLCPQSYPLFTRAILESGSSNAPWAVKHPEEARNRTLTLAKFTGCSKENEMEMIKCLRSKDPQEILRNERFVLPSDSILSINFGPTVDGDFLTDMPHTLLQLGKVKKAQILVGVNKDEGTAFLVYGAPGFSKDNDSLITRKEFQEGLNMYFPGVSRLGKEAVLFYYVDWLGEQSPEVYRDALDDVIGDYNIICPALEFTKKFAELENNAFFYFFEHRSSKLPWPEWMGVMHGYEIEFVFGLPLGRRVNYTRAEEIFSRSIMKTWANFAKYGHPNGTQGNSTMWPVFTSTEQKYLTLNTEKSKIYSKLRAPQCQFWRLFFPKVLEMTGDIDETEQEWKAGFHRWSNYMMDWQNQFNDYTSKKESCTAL
Sequence of Sodium-dependent serotonin transporter (P31645 whole entry): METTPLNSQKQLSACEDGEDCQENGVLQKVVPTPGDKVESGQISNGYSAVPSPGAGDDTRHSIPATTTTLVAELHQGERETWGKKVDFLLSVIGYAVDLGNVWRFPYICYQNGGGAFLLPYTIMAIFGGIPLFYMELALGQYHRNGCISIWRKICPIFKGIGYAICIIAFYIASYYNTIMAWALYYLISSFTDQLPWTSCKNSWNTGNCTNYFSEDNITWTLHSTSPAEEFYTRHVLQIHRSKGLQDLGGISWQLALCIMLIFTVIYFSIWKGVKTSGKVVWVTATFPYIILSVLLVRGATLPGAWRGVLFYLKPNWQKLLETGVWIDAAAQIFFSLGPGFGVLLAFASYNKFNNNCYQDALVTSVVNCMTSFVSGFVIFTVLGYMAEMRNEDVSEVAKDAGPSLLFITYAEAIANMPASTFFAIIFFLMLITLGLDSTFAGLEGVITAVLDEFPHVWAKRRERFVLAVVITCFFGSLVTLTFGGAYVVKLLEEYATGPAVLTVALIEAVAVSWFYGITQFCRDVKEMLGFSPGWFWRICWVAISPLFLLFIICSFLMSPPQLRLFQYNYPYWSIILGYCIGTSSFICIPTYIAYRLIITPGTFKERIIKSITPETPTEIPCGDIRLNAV
Sequence of 5-hydroxytryptamine receptor 1B (P28222 whole entry): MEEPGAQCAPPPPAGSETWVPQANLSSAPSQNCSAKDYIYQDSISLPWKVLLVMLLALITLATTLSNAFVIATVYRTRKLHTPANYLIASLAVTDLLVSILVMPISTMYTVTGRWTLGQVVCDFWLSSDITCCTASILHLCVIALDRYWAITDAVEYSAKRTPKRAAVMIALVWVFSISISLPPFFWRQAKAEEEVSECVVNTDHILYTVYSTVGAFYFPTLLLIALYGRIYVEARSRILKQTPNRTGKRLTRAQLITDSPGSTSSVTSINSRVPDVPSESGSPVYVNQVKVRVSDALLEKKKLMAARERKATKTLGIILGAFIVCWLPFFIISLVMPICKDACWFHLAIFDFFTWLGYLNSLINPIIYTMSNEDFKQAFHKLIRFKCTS
Sequence of Sodium-dependent dopamine transporter (Q01959 whole entry): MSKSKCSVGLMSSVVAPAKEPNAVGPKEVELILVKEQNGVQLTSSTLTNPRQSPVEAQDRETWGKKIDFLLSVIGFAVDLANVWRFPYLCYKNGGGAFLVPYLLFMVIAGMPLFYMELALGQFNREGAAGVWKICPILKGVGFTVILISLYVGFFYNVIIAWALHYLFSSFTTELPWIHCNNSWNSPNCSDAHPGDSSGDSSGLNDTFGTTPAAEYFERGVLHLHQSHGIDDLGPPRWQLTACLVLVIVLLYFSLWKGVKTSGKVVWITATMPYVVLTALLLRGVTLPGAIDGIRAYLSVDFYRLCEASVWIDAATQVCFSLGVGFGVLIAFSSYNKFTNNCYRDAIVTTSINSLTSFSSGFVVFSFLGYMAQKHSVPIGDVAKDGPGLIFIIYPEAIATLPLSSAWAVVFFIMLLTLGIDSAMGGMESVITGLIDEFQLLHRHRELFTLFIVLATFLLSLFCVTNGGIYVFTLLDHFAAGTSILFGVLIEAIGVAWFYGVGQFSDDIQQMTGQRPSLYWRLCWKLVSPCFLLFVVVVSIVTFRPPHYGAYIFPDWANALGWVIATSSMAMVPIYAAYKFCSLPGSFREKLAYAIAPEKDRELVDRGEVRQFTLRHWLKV
Sequence of Voltage-gated inwardly rectifying potassium channel KCNH2 (Q12809 whole entry): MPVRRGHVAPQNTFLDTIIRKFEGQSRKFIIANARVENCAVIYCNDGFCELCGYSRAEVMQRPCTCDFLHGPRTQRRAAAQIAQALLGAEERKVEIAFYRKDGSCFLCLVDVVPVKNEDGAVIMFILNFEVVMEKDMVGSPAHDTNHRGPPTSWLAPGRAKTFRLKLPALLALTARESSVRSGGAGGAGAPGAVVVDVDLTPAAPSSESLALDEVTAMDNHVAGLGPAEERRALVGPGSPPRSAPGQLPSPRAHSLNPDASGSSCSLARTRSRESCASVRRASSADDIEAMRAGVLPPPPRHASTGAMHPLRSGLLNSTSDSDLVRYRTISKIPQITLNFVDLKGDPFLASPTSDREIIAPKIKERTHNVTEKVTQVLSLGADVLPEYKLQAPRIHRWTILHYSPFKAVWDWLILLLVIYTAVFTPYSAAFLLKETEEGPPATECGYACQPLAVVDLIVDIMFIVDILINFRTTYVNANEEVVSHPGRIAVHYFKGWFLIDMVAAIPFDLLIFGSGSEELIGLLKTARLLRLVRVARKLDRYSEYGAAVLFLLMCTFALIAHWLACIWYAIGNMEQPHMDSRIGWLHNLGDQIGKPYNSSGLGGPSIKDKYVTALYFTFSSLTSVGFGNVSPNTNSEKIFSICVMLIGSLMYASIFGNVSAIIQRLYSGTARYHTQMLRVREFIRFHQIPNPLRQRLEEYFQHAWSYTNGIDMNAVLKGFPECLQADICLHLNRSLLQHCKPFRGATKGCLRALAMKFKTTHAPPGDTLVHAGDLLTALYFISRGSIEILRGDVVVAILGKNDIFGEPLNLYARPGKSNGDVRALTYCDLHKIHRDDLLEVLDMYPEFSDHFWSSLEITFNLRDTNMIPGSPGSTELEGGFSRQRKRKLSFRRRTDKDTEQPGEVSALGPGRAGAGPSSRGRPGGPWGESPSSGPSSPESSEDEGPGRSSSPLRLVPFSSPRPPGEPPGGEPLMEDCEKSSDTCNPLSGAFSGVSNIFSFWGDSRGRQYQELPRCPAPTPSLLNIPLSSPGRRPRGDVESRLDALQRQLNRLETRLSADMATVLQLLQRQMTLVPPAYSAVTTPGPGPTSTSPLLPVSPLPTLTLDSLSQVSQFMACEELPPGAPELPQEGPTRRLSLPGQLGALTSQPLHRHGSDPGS
Sequence of Acetylcholinesterase (Homo sapiens, UniProt P22303) (P22303 whole entry): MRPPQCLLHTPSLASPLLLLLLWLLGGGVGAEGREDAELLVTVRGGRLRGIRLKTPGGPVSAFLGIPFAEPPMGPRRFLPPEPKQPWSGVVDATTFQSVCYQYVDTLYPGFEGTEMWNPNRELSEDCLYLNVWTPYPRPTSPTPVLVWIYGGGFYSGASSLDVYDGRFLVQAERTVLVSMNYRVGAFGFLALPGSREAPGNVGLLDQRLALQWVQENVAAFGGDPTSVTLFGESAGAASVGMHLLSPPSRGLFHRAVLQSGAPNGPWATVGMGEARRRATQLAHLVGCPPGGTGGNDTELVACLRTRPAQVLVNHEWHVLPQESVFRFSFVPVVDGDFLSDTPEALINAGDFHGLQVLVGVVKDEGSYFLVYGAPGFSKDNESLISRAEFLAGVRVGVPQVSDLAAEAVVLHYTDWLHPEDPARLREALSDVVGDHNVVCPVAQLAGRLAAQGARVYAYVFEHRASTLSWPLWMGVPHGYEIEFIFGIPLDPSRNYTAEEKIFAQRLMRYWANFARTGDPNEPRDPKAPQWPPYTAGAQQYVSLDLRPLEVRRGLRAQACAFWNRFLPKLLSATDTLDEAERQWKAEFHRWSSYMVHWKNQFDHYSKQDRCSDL

| Structure (SMILES) | pIC50 [2] | pIC50 (Cholinesterase) | pEC50 [3] | Papp (in vitro [4]) | pIC50 (Acetylcholinesterase [5]) | also measured |
| --- | --- | --- | --- | --- | --- | --- |
| CN1CCC[C@@H]1Cc1c[nH]c2ccc(CCS(=O)(=O)c3ccccc3)cc12 | – | – | – | – | – | pEC50 [1]: 7.93 |
| N#Cc1ccc2[nH]cc(CCN3CCN(c4ccc(C(=O)CCC5CCN(Cc6cc[nH]c6)CC5)cc4)CC3)c2c1 | 8.08 | 5.45 | < 6.00 | 3.15 ×10⁻⁶ cm/s | 8.45 | – |
| N#Cc1ccc2[nH]cc(CCCCN3CCN(c4ccc(C(=O)CCC5CCN(Cc6ccccc6)CC5)cc4)CC3)c2c1 | 7.53 | 5.66 | 7.23 | – | 8.64 | pKi (Acetylcholinesterase [6]): 8.94; pIC50 (Acetylcholinesterase [7]): 9.24; pIC50 [8]: < 4.40; pIC50 [9]: 5.98; pEC50 [1]: < 4.52 |
| N#Cc1ccc2[nH]cc(CCCN3CCN(c4ccc(C(=O)CCC5CCN(Cc6ccccc6)CC5)cc4)CC3)c2c1 | 7.40 | 5.83 | 7.18 | 4.38 ×10⁻⁶ cm/s | 8.66 | – |
| N#Cc1ccc2[nH]cc(CN3CCN(c4ccc(C(=O)CCC5CCN(Cc6ccsc6)CC5)cc4)CC3)c2c1 | 7.12 | 6.04 | < 6.00 | 5.25 ×10⁻⁶ cm/s | 8.63 | – |
| N#Cc1ccc2[nH]cc(CCN3CCN(c4ccc(C(=O)CCC5CCN(Cc6ccsc6)CC5)cc4)CC3)c2c1 | 7.47 | 5.73 | < 6.00 | 4.77 ×10⁻⁶ cm/s | 8.59 | – |
| N#Cc1ccc2[nH]cc(CN3CCN(c4ccc(C(=O)CCC5CCN(Cc6ccccc6)CC5)cc4)CC3)c2c1 | 7.26 | 6.01 | < 6.00 | 3.67 ×10⁻⁶ cm/s | 8.19 | – |
| N#Cc1ccc2[nH]cc(CN3CCN(c4ccc(C(=O)CCC5CCN(Cc6cc[nH]c6)CC5)cc4)CC3)c2c1 | 7.92 | 5.94 | < 6.00 | 3.17 ×10⁻⁶ cm/s | 8.47 | – |
| N#Cc1ccc2[nH]cc(CCCN3CCN(c4ccc5c(c4)CC(CC4CCN(Cc6ccccc6)CC4)C5=O)CC3)c2c1 (stereo unspecified) | 7.74 | 6.26 | 6.50 | 3.55 ×10⁻⁶ cm/s | 8.36 | – |
| COc1cc2c(cc1OC)C(=O)C(CC1CCN(Cc3ccccc3)CC1)C2 (stereo unspecified) [DONEPEZIL] | – | – | – | – | – | half-life at […] (in vitro [10]): > 145 min; microsomal CLint at […] (in vitro [11]): < 9.6 µL/min/mg; half-life at […] (in vitro [12]): 46 min; microsomal CLint at […] (in vitro [13]): 34.8 µL/min/mg |
| C[C@]12CC[C@H]3[C@@H](CCC4=CC(=O)CC[C@@]43C)[C@@H]1CC[C@@H]2O [TESTOSTERONE] | – | – | – | – | – | microsomal CLint at […] (in vitro [11]): 597 µL/min/mg; microsomal CLint at […] (in vitro [13]): 189 µL/min/mg |
| N#Cc1ccc2[nH]cc(CCCCN3CCN(c4ccc5oc(C(N)=O)cc5c4)CC3)c2c1 [VILAZODONE] | – | – | – | 10.8 ×10⁻⁶ cm/s | 4.67 | pIC50 [8]: 5.26; pIC50 [14]: 6.80; pIC50 [9]: 6.53; pEC50 [1]: < 4.52; half-life at […] (in vitro [10]): 43.8 min; microsomal CLint at […] (in vitro [11]): 31.6 µL/min/mg; half-life at […] (in vitro [12]): 39.8 min; microsomal CLint at […] (in vitro [13]): 30.1 µL/min/mg |
